Consider twelve compounds from ChEMBL document CHEMBL1201862, “PubChem BioAssay data set” (2004).

Each structure is given as a SMILES string.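 Cells were grown in 96-well plates and exposed to each compound for 48 hours at five concentrations; endpoints were interpolated linearly between bracketing concentrations, or set to the highest concentration if not reached. Here, GI50 denotes the concentration required for 50% inhibition of growth.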 Activity calls are given as the source filed them. No stated cut-off is given here; in the data, active = GI50 up to about 1.1 µM and inactive = higher.

One may read the GI50 as the concentration at which growth is held to half of that of the control.

Some test systems named below: T47D; M14; BT-549; CAKI-1; HCT-15; SW-620; HCT-116; CCRF-CEM; OVCAR-5; HOP-92; UO-31; OVCAR-3; 786-0; MDA-MB-231; TK-10; NCI-H23; NCI-H522; UACC-257; RPMI-8226.
Assay in all cases: DTP human tumour cell line panel, 48 h

Regarding `COc1cccc(-c2nc(N)c(C#N)c3c2CCS(=O)(=O)c2ccc(C)cc2-3)c1`, the GI50 is 43.2 µM (inactive) in the experiment with T47D; 25.7 µM (inactive) with M14; 52 µM (inactive) in the experiment with BT-549; 9.98 µM (inactive) in the experiment with CAKI-1; 7.87 µM with HCT-15; > 34.1 µM (inactive) in the experiment on SW-620. For the same compound, the GI50 was 20 µM (inactive) in the experiment on HCT-116; 14.6 µM (inactive) in the experiment with CCRF-CEM; > 100 µM (inactive) in the experiment with OVCAR-5; 68.7 µM (inactive) in the experiment on HOP-92; 40.3 µM (inactive) with UO-31; 21 µM (inactive) in the experiment on OVCAR-3. For the same compound, the GI50 in the experiment with 786-0 was 22.6 µM (inactive); with MDA-MB-231, 21.8 µM (inactive); in the experiment with TK-10, > 68.9 µM (inactive); in the experiment with NCI-H23 it was 43.1 µM (inactive); in the experiment on NCI-H522, 2.68 µM (inactive); in the experiment on UACC-257, 34.1 µM (inactive).
Turning to `C/C(=C\COP(=O)(O)CP(=O)(O)O)CC/C=C(\C)CNc1ccccc1`, the GI50 in the experiment on T47D was > 100 µM (inactive); in the experiment with M14 it was > 100 µM (inactive); in the experiment on BT-549, 14.6 µM (inactive); in the experiment on CAKI-1, > 100 µM (inactive); in the experiment on HCT-15 it was more than 100 µM; with SW-620 it was > 100 µM (inactive). Moreover, the GI50 with HCT-116, in the experiment on CCRF-CEM, in the experiment with OVCAR-5, in the experiment with UO-31, in the experiment with OVCAR-3 and in the experiment on 786-0 was > 100 µM (inactive) in each case. For the same compound, the GI50 was > 100 µM (inactive) in the experiment on MDA-MB-231; > 100 µM (inactive) in the experiment with TK-10; 6.28 µM (inactive) in the experiment with NCI-H23; > 100 µM (inactive) in the experiment with NCI-H522; > 100 µM (inactive) in the experiment with RPMI-8226; > 100 µM (inactive) with UACC-257.
As for `CN(C)c1ccc(/C=C2\CCCCCC2=O)cc1`, the GI50 is 38.5 µM (inactive) with T47D; 79.1 µM (inactive) in the experiment with M14; 81.5 µM (inactive) in the experiment on BT-549; > 100 µM (inactive) with CAKI-1; > 100 µM (inactive) with SW-620; 57.3 µM (inactive) in the experiment on HCT-116. Moreover, the GI50 in the experiment on CCRF-CEM was > 100 µM (inactive); in the experiment on OVCAR-5, > 100 µM (inactive); in the experiment on UO-31, 50.6 µM (inactive); in the experiment with OVCAR-3, 71.1 µM (inactive); with 786-0, 87.1 µM (inactive); with MDA-MB-231, 32.7 µM (inactive). In addition, the GI50 with TK-10 is > 100 µM (inactive); in the experiment with RPMI-8226, 94.4 µM (inactive); in the experiment with UACC-257, 74.3 µM (inactive).
As to `CC(=O)N1CCN(CCCCN2c3ccccc3Sc3cc(N=[N+]=[N-])ccc32)CC1`, the GI50 was 3.65 µM (inactive) in the experiment with T47D; 17.3 µM (inactive) with BT-549; 12.1 µM (inactive) with CAKI-1; 14.9 µM with HCT-15; 15.5 µM (inactive) with SW-620; 13.8 µM (inactive) in the experiment on HCT-116. Besides, the GI50 is 14.5 µM (inactive) in the experiment on CCRF-CEM; 13.7 µM (inactive) in the experiment with OVCAR-5; 11.3 µM (inactive) in the experiment on UO-31; 12.8 µM (inactive) with OVCAR-3; 15.6 µM (inactive) with 786-0; 13.8 µM (inactive) with MDA-MB-231. Also, the GI50 in the experiment on TK-10 was 17.4 µM (inactive); in the experiment with NCI-H23, 15.7 µM (inactive); with NCI-H522 it was 13 µM (inactive); in the experiment on RPMI-8226, 10.5 µM (inactive); in the experiment with UACC-257 it was 24.5 µM (inactive).
For `Cc1cc2c(C)cc(=O)[nH]c2cc1N`, the GI50 is > 100 µM (inactive) in the experiment with T47D; > 100 µM (inactive) in the experiment on M14; > 100 µM (inactive) in the experiment on BT-549; > 100 µM (inactive) in the experiment on CAKI-1; more than 100 µM with HCT-15; > 100 µM (inactive) with SW-620. Besides, the GI50 with HCT-116, in the experiment on CCRF-CEM, with OVCAR-5, in the experiment with HOP-92, with UO-31 and in the experiment on OVCAR-3 was > 100 µM (inactive) in each case. Moreover, the GI50 was > 100 µM (inactive) in the experiment on 786-0; 46.9 µM (inactive) with MDA-MB-231; > 100 µM (inactive) in the experiment on NCI-H23; > 100 µM (inactive) in the experiment with RPMI-8226; > 100 µM (inactive) in the experiment with UACC-257.
Turning to `O=S(=O)(O)c1c(Cl)cc(O)c2ncccc12`, the GI50 was > 100 µM (inactive) in the experiment with T47D; > 100 µM (inactive) in the experiment with M14; > 100 µM (inactive) in the experiment with BT-549; > 100 µM (inactive) with CAKI-1; more than 100 µM with HCT-15; > 100 µM (inactive) in the experiment with SW-620. Besides, the GI50 with HCT-116, in the experiment on CCRF-CEM, in the experiment on OVCAR-5, with HOP-92, in the experiment with UO-31 and with OVCAR-3 was > 100 µM (inactive) each time. Besides, the GI50 in the experiment with 786-0, in the experiment on MDA-MB-231, in the experiment with NCI-H23, with RPMI-8226 and in the experiment with UACC-257 was > 100 µM (inactive) throughout.
With `O=C1CC[C@@]23CC(=O)O[C@@H]2CCCC3C1` (some centres undefined), the GI50 was > 100 µM (inactive) in the experiment on T47D; > 100 µM (inactive) with M14; > 100 µM (inactive) in the experiment on BT-549; > 100 µM (inactive) in the experiment with CAKI-1; more than 100 µM in the experiment with HCT-15; > 100 µM (inactive) with SW-620. The GI50 in the experiment with HCT-116, with CCRF-CEM, in the experiment on OVCAR-5, in the experiment with UO-31, in the experiment on 786-0 and in the experiment with MDA-MB-231 was > 100 µM (inactive) each time. In addition, the GI50 with TK-10, with NCI-H23, in the experiment with NCI-H522, with RPMI-8226 and in the experiment on UACC-257 was > 100 µM (inactive) each time.
For the compound `COC(=O)c1ccc(Oc2nc3ccccc3nc2-c2cccs2)cc1`, the GI50 with T47D is 60.8 µM (inactive); in the experiment with M14 it was 89.5 µM (inactive); in the experiment with BT-549 it was 45.7 µM (inactive); with CAKI-1 it was 43.4 µM (inactive); with HCT-15, 75.5 µM; in the experiment on SW-620 it was 46.8 µM (inactive). Besides, the GI50 in the experiment on HCT-116 was 41.3 µM (inactive); with CCRF-CEM, > 100 µM (inactive); in the experiment on OVCAR-5 it was > 100 µM (inactive); in the experiment on UO-31, > 100 µM (inactive); in the experiment on OVCAR-3, > 100 µM (inactive); in the experiment on 786-0 it was 34.4 µM (inactive). The GI50 was 21.3 µM (inactive) in the experiment with MDA-MB-231; 26.7 µM (inactive) in the experiment with TK-10; 23.6 µM (inactive) in the experiment on NCI-H23; 76 µM (inactive) in the experiment with NCI-H522; > 100 µM (inactive) with UACC-257.
Turning to `CC(C)c1ccc2nc3ccc(C(=O)NCCN(C)C)cn3c(=O)c2c1`, the GI50 in the experiment on T47D was 19.1 µM (inactive); in the experiment with M14, 14.6 µM (inactive); in the experiment on BT-549 it was 14.2 µM (inactive); in the experiment with CAKI-1, 23.1 µM (inactive); with HCT-15 it was 13.8 µM; in the experiment with SW-620, 14.7 µM (inactive). The GI50 with HCT-116 was 13.9 µM (inactive); with CCRF-CEM it was 14.9 µM (inactive); in the experiment on OVCAR-5 it was 14.7 µM (inactive); with UO-31, 14.6 µM (inactive); in the experiment on OVCAR-3, 29.2 µM (inactive); in the experiment with 786-0, 14.6 µM (inactive). The GI50 in the experiment with MDA-MB-231 is 15 µM (inactive); in the experiment with TK-10, 17.3 µM (inactive); with NCI-H23 it was 15.5 µM (inactive); in the experiment with NCI-H522 it was 15.3 µM (inactive); with UACC-257 it was 12.1 µM (inactive).
For `CC(C)=CC(=O)C[C@H]1C(=O)O[C@@H]2C[C@H]3C(C)=CC(=O)[C@@H](O)[C@]3(C)[C@H]3[C@@]4(O)OC[C@]32[C@@H]1[C@@H](C)[C@H]4O`, the GI50 in the experiment on T47D was < 0.0111 µM (active); in the experiment with M14 it was 0.0196 µM (active); in the experiment with BT-549 it was 0.0213 µM (active); with CAKI-1 it was 0.0975 µM (active); in the experiment on HCT-15, 0.0382 µM; with SW-620 it was 0.0281 µM (active). The GI50 with HCT-116 was < 0.01 µM (active); in the experiment on CCRF-CEM, < 0.01 µM (active); in the experiment on OVCAR-5 it was 0.0711 µM (active); in the experiment with HOP-92 it was 0.0216 µM (active); with UO-31, 0.0605 µM (active); with OVCAR-3 it was < 0.0146 µM (active). For the same compound, the GI50 with 786-0 is 0.0266 µM (active); in the experiment with MDA-MB-231, 0.0454 µM (active); in the experiment with TK-10, 0.019 µM (active); in the experiment on NCI-H23 it was < 0.01 µM (active); in the experiment on RPMI-8226, < 0.01 µM (active); with UACC-257 it was 0.0185 µM (active).
For `CC1(C)N[PH]2(Nc3ccccc3O2)OC1=O`, the GI50 was > 100 µM (inactive) in the experiment with T47D; 38.5 µM (inactive) in the experiment with M14; 18.6 µM (inactive) with BT-549; 66.2 µM (inactive) with CAKI-1; 64.9 µM in the experiment on HCT-15; 42.7 µM (inactive) with SW-620. The GI50 in the experiment with HCT-116 is > 100 µM (inactive); with CCRF-CEM it was 41.2 µM (inactive); in the experiment on OVCAR-5 it was > 100 µM (inactive); with UO-31 it was 96.4 µM (inactive); in the experiment with OVCAR-3, > 100 µM (inactive); in the experiment on 786-0, > 100 µM (inactive). The GI50 was > 100 µM (inactive) in the experiment with MDA-MB-231; 68.2 µM (inactive) with TK-10; 67.9 µM (inactive) in the experiment with NCI-H23; 5.32 µM (inactive) with RPMI-8226; > 100 µM (inactive) with UACC-257.
Take `O=C(NN1C(=O)C(Cl)C1c1ccc(Cl)cc1)c1c(Cl)c(Cl)c(Cl)c(Cl)c1-c1nc2ccccc2[nH]1` (centres undefined): the GI50 was < 0.01 µM (active) in the experiment with T47D; 20.8 µM (inactive) in the experiment on M14; 24.4 µM (inactive) with BT-549; 3.73 µM (inactive) in the experiment on CAKI-1; 17.6 µM in the experiment on HCT-15; 23.1 µM (inactive) with SW-620. In addition, the GI50 in the experiment on HCT-116 was 15.5 µM (inactive); with CCRF-CEM, 8.39 µM (inactive); with OVCAR-5, 37.2 µM (inactive); with HOP-92 it was 13.5 µM (inactive); with UO-31, 22.6 µM (inactive); with OVCAR-3, 27.8 µM (inactive). Besides, the GI50 with 786-0 is 16.5 µM (inactive); in the experiment with NCI-H23, 21.5 µM (inactive); in the experiment on NCI-H522, 13.8 µM (inactive); in the experiment on UACC-257, 25.2 µM (inactive).
